Source: patent US7655395B2, “Isolation and use of ryanodine receptors” (E.I. du Pont de Nemours and Company, priority 2002, dated 2010)

Target: T1, recombinant Drosophila melanogaster ryanodine receptors (expressed in Sf9 cells) (Drosophila melanogaster, UniProt Q24498)
T1 construct: expressed in transfected cells
Type: cell-based
Settings: receptor expressed in Sf9 cells
Method: The Spodoptera frugiperda cell line Sf9 used for transfection studies, was maintained in Sf-900 II SFM medium (Invitrogen Life Technologies™, Carlsbad, Calif.) in T-75 flasks incubated at 27° C. It is understood that those skilled in the art might choose alternative cell types such as the Spodoptera frugiperda cell line Sf21 or the Drosophila cell line S2. For the purpose of general handling and propagation, cells were suspended through scraping or agitation and a volume of cell suspension was added to each well of a poly-L-lysine coated 96-well, glass-bottom plate so as to provide 70-80% confluence. Cells were maintained in an incubator at 27° C. until testing.
SF900-II media was used to bring the final volume in the dish to 2 ml and the cells were incubated at 27 degrees C. for 21 h. Following the incubation the media was aspirated from the dish and replaced with 1 ml of SF900-II media pre-warmed to 27 degrees C.
The transient transfection was carried out following an InsectSelect BSD System manual (Invitrogen Life Technologies™, Carlsbad, Calif.). […] The transfection was accomplished by adding the transfection solution drop-wise to the dish and incubating 4 h at room temperature with gentle rocking. […]
Several drops of a suspension of recombinant Spodoptera frugiperda cell line, Sf9, transiently expressing insect ryanodine receptors were placed on a poly-L-lysine-coated coverslip and allowed to attach. Cells were then rinsed in physiological saline having the following composition (mM): NaCl 130; KCl 5.4; MgCl2 1.2; CaCl2 1.0; NaHCO3 4.2; NaH2P04 7.3; Glucose 10; Sucrose 63; MES 20; pH 6.3. Cells were then bathed in physiological saline containing the calcium sensitive fluoroprobe, Fura-2 AM (2 μM), and Pluronic F127 (0.002%) for 30 min. Cells were rinsed in standard physiological saline for at least 15 min prior to testing. Testing was conducted in standard physiological saline, as the cell lines are devoid of functional voltage-gated calcium channels.
Cell-attached coverslips were placed in a sealed chamber with physiological saline continuously perfused across the cells using a peristaltic pump. Test compounds solubilized in physiological saline were applied by switching the perfusate source.
For studies involving the stable recombinant Spodoptera frugiperda cell line, Sf9, (other cell lines could also be used such as Sf21, S2, etc) expressing an insect ryanodine receptor from Drosophila melanogaster, or Heliothis virescens (alternatively receptors from other species such as Myzus persicae, Peregrinus maidis, Aphis gossypii, etc) were grown in T75 (or other appropriate sized) flasks in supplemented Grace's insect medium. Cells were maintained in an incubator at 22° C. until testing. Cells were suspension-loaded with the calcium sensitive fluoroprobe, Fura-2 AM (1-2 μM) and Pluronic F127 (0.002%) in culture medium for 30 minutes under agitation. Cells were then centrifuged and the pellet resuspended in physiological saline having the following composition (mM): NaCl 130; KCl 5.4; MgCl2 1.2; CaCl2 1.0; NaHCO3 4.2; NaH2P04 7.3; Glucose 10; Sucrose 63; MES 20; pH 6.3 at approximately 150,000-200,000 cells per well (96-well plate). After a 30 minute equilibration period the cell plate was tested using a Molecular Devices' FlexStation™ system with dual wavelength excitation (340 and 380 nm) and fluorescence emission measured at 510 nm. Test and control samples were added using integrated fluidics and the intracellular calcium monitored over a 2 minute period.

## CNC(=O)c1cc(Cl)cc(C)c1NC(=O)c1cc(Br)nn1-c1ncccc1Cl [Cpd 14]
  Calcium Release Threshold (nM) D. melanogaster: <300 nM
